Source: PubChem BioAssay (NCI)
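Abbreviation: GI50, concentration required for 50% inhibition of growth. Definition used: TGI = concentration required for complete inhibition of growth.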

Columns and labels:
Assay in all cases: NCI anticancer screen, dose series, 384-well format
[1] = system: 786-0 renal
[2] = system: BT-549 breast
[3] = system: CAKI-1 renal
[4] = system: CCRF-CEM leukemia
[5] = system: HCT-116 colon
[6] = system: HCT-15 colon
[7] = system: HL-60(TB) leukemia
[8] = system: HOP-62 NSCLC
[9] = system: K-562 leukemia
[10] = system: LOX IMVI melanoma
[11] = system: M14 melanoma
[12] = system: MALME-3M melanoma
[13] = system: MDA-MB-231 breast
[14] = system: MDA-MB-468 breast
[15] = system: MOLT-4 leukemia
[16] = system: NCI-H522 lung
[17] = system: OVCAR-8 ovarian
[18] = system: RPMI-8226 leukemia
[19] = system: RXF 393 renal
[20] = system: SF-268 CNS
[21] = system: SF-295 CNS
[22] = system: SF-539 CNS
[23] = system: SK-MEL-2 melanoma
[24] = system: SN12C renal
[25] = system: SNB-19 CNS
[26] = system: SNB-75 CNS
[27] = system: SW-620 colon
[28] = system: U251 glioblastoma
[29] = system: UACC-62 melanoma
[30] = system: A498 renal
[31] = system: A549 NSCLC
[32] = system: ACHN renal
[33] = system: COLO 205 colon
[34] = system: DU-145 prostate
[35] = system: EKVX NSCLC
[36] = system: HCC-2998 colon
[37] = system: HOP-92 NSCLC
[38] = system: HS 578T breast
[39] = system: HT29 colon
[40] = system: IGROV1 ovarian
[41] = system: KM12 colon
[42] = system: MCF7 breast
[43] = system: MDA-MB-435 melanoma
[44] = system: NCI-H226 lung
[45] = system: NCI-H23 lung
[46] = system: NCI-H322M lung
[47] = system: NCI-H460 NSCLC
[48] = system: NCI/ADR-RES ovarian
[49] = system: OVCAR-3 ovarian
[50] = system: OVCAR-4 ovarian
[51] = system: OVCAR-5 ovarian
[52] = system: PC-3 prostate
[53] = system: SK-MEL-28 melanoma
[54] = system: SK-MEL-5 melanoma
[55] = system: SK-OV-3 ovarian
[56] = system: SR leukemia
[57] = system: T-47D breast
[58] = system: TK-10 renal
[59] = system: UACC-257 melanoma
[60] = system: UO-31 renal

O=NN(CCCl)C(=O)NCCCl
GI50 [1]: 43.3 µM | GI50 [2]: 36 µM | GI50 [3]: 81.2 µM | GI50 [4]: 22.3 µM | TGI [4]: 40.9 µM | GI50 [5]: 49.8 µM | GI50 [6]: 46.5 µM | GI50 [7]: 15.1 µM | TGI [7]: 28.5 µM | GI50 [8]: 34.6 µM | GI50 [9]: 46.5 µM | GI50 [10]: 24.2 µM | GI50 [11]: 69.9 µM | GI50 [12]: 75.9 µM | GI50 [13]: 55.9 µM | GI50 [14]: 23.7 µM | GI50 [15]: 15.6 µM | TGI [15]: 29.5 µM | GI50 [16]: 32.4 µM | GI50 [17]: 97.8 µM | GI50 [18]: 20 µM | TGI [18]: 48.7 µM | GI50 [19]: 56.9 µM | GI50 [20]: 15.9 µM | GI50 [21]: 25.4 µM | TGI [21]: 73 µM | GI50 [22]: 24.4 µM | TGI [22]: 90.1 µM | GI50 [23]: 61.5 µM | GI50 [24]: 74.1 µM | GI50 [25]: 56.2 µM | GI50 [26]: 26.7 µM | GI50 [27]: 54.2 µM | GI50 [28]: 23.9 µM | GI50 [29]: 19.4 µM

CCCS(=O)(=O)Nc1ccc(F)c(C(=O)c2c[nH]c3ncc(Cl)cc23)c1F
GI50 [1]: 10.9 µM | TGI [1]: 25.6 µM | GI50 [30]: 5.21 µM | TGI [30]: 20.3 µM | GI50 [31]: 12.3 µM | TGI [31]: 41.2 µM | GI50 [32]: 4.26 µM | TGI [32]: 18.7 µM | GI50 [2]: 15.5 µM | TGI [2]: 29.3 µM | GI50 [3]: 6.54 µM | TGI [3]: 46 µM | GI50 [4]: 11.7 µM | TGI [4]: 24 µM | GI50 [33]: 0.144 µM | TGI [33]: 13.6 µM | GI50 [34]: 9.18 µM | TGI [34]: 27.9 µM | GI50 [35]: 16.3 µM | TGI [35]: 41.3 µM | GI50 [36]: 20.6 µM | TGI [36]: 35.1 µM | GI50 [5]: 8.39 µM | TGI [5]: 23.8 µM | GI50 [6]: 9.16 µM | TGI [6]: 22 µM | GI50 [7]: 11.2 µM | TGI [7]: 23.3 µM | GI50 [8]: 13.3 µM | TGI [8]: 32.5 µM | GI50 [37]: 15 µM | TGI [37]: 36.3 µM | GI50 [38]: 4.5 µM | TGI [38]: 15.4 µM | GI50 [39]: 0.71 µM | TGI [39]: 17.1 µM | GI50 [40]: 4.47 µM | TGI [40]: 17.3 µM | GI50 [9]: 11.3 µM | TGI [9]: 23.7 µM | GI50 [41]: 14.3 µM | TGI [41]: 33.3 µM | GI50 [10]: 2.64 µM | TGI [10]: 15.9 µM | GI50 [11]: 0.0582 µM | TGI [11]: 2.1 µM | GI50 [12]: 0.0363 µM | TGI [12]: 0.118 µM | GI50 [42]: 20.3 µM | TGI [42]: 50.7 µM | GI50 [13]: 15.3 µM | TGI [13]: 29.8 µM | GI50 [43]: 0.681 µM | TGI [43]: 17.7 µM | GI50 [14]: 10.3 µM | TGI [14]: 23.5 µM | GI50 [15]: 12.3 µM | TGI [15]: 24.9 µM | GI50 [44]: 16.5 µM | TGI [44]: 32.6 µM | GI50 [45]: 18.3 µM | TGI [45]: 37.8 µM | GI50 [46]: 10.1 µM | TGI [46]: 80.2 µM | GI50 [47]: 6.96 µM | TGI [47]: 21.3 µM | GI50 [16]: 16.1 µM | TGI [16]: 32.1 µM | GI50 [48]: 17.1 µM | TGI [48]: 33.6 µM | GI50 [49]: 13.5 µM | TGI [49]: 29.7 µM | GI50 [50]: 21.1 µM | TGI [50]: 59.1 µM | GI50 [51]: 19.2 µM | TGI [51]: 64.3 µM | GI50 [17]: 13.5 µM | TGI [17]: 39.5 µM | GI50 [52]: 16.3 µM | TGI [52]: 41 µM | GI50 [18]: 4.76 µM | TGI [18]: 15.7 µM | GI50 [19]: 4.12 µM | TGI [19]: 13.8 µM | GI50 [20]: 17.5 µM | TGI [20]: 44.7 µM | GI50 [21]: 7.44 µM | TGI [21]: 27.3 µM | GI50 [22]: 15.1 µM | TGI [22]: 35.3 µM | GI50 [53]: 0.0544 µM | TGI [53]: 0.549 µM | GI50 [54]: 1.05 µM | TGI [54]: 15 µM | GI50 [55]: 4.11 µM | TGI [55]: 19.8 µM | GI50 [24]: 19.6 µM | TGI [24]: 68.3 µM | GI50 [25]: 31.3 µM | TGI [25]: 86 µM | GI50 [26]: 11.2 µM | TGI [26]: 34.2 µM | GI50 [56]: 3.93 µM | TGI [56]: 14.2 µM | GI50 [27]: 31.6 µM | TGI [27]: 60 µM | GI50 [57]: 17.7 µM | TGI [57]: 55.6 µM | GI50 [58]: 10.3 µM | TGI [58]: 28.4 µM | GI50 [28]: 13.1 µM | TGI [28]: 27.2 µM | GI50 [59]: 0.183 µM | TGI [59]: 1.18 µM | GI50 [60]: 13.3 µM | TGI [60]: 36.6 µM
